Assay results taken from patent US20240299412A1, “DRUG FORMULATIONS OF 4-(3,3-DIFLUORO-2,2-DIMETHYL-PROPANOYL) -3,5-DIHYDRO-2H-PYRIDO[3,4-f][1,4]OXAZEPINE-9-CARBONITRILE” (Genzyme Corporation, priority 2023, published 2024).

Experiments:
Type in all cases: physicochemical
[1] = pKa measurement (Sirius T3, UV metric method); details: MeOH as solvent, Yasuda-Shedlovsky extrapolation, ionic strength 0.176M, 28.9° C., to be taken as reference (effective range pH 2-12)
Protocol: pKa. The pKa was measured by a Sirius pKa log P/D tester (model: T3) with a UV detector (UV metric method) using MeOH as solvent.
In addition, the pKa value of Compound (1) starting material was measured to be 1.68 by a Sirius pKa log P/D tester (model: T3) with a UV detector (UV metric method) using MeOH as solvent. The pKa value should be taken as reference because the effective pH range of UV metric method is pH 2-12.

Cohesion evaluation = test: Cohesion evaluation
Text: Different options were explored to improve the cohesion property of the tablet, for example, by change of lactose and mannitol grades (standard grade in place of Spray Dried grade), using anhydrous lactose in place of monohydrate lactose Spray-Dried, using different ratios of lactose/mannitol, or using pregelatinized corn starch instead of mannitol, but only a decrease of tablet cohesion was observed.

Solid form screening = details: 96 solid form screening experiments
Protocol: A total of 96 solid form screening experiments were performed using different crystallization or solid transformation methods.

pKa [1]: 1.68
cohesion property of the drug substance (Cohesion evaluation): very low cohesion property
crystal forms observed from screening (Solid form screening): Only one crystal form
Compound: CC(C)(C(=O)N1CCOc2c(C#N)cncc2C1)C(F)F [Compound 1, 4-(3,3-difluoro-2,2-dimethyl-propanoyl)-3,5-dihydro-2H-pyrido[3,4-f][1,4]oxazepine-9-carbonitrile]
